One assay has as its target T1, human thrombin (Homo sapiens, UniProt P00734).
T1 construct: 0.2-0.5 nM human thrombin or human factor Xa; purchased Enzyme Research Laboratories, South Bend, Ind
The experiment in a line: Inhibition of thrombin hydrolysis of chromogenic substrate S2238 (Ki). It counts as biochemical. To be noted: S2238, pH 7.5. Here is the method: (§1) The effectiveness of compounds of the present invention as inhibitors of blood coagulation proteases was determined using purified human proteases and synthetic substrates following procedures similar to those described in Kettner et al. (1990).
(§2) For these assays, the rate of enzymatic (thrombin, Factor Xa, and Factor VIIa) hydrolysis of chromogenic substrates (S2238 (H-D-Phe-Pip-Arg-pNA), S2222, and S2288, respectively; Kabi Pharmacia, Franklin, Ohio) was measured both in the absence and presence of compounds of the present invention. […] A decrease in the rate of absorbance change at 405 nm in the presence of inhibitor is indicative of enzyme inhibition. The results of this assay are expressed as inhibitory constant, Ki.
(§3) Thrombin and Xa determinations were made in 0.10M sodium phosphate buffer, pH 7.5, containing 0.20M NaCl, and 0.5% PEG 8000. VIIa determinations were made in 0.05M tris buffer, pH 7.6, containing 0.10M NaCl, 4 mM CaCl2, and 0.1% bovine serum albumin.
(§4) Reactions were allowed to go for 30 minutes and the velocities (rate of absorbance change vs time) were measured in the time frame of 25-30 minutes. The following relationship was used to calculate Ki values. [formula] where: vo is the velocity of the control in the absence of inhibitor;
(§5) vs is the velocity in the presence of inhibitor;
(§6) I is the concentration of inhibitor;
(§7) Ki is the dissociation constant of the enzyme: inhibitor complex;
(§8) S is the concentration of substrate;
(§9) Km is the Michaelis constant.

A further assay concerns the target T2, human factor Xa (Homo sapiens, UniProt P00742).
T2 construct: 0.2-0.5 nM human thrombin or human factor Xa; purchased Enzyme Research Laboratories, South Bend, Ind
The experiment in a line: Inhibition of Factor Xa hydrolysis of chromogenic substrate S2222 (Ki). It counts as biochemical. To be noted: S2222, pH 7.5. How it is done: as §1, §2, §3, §4, §5, §6, §7, §8, §9

A further assay has as its target T3, human factor VIIa (Homo sapiens, UniProt P08709).
T3 construct: 50 nM human factor VIIa (BiosPacific, Emeryville, Calif.); purchased BiosPacific, Emeryville, Calif
T3 sequence (P08709 213-466 limits assumed): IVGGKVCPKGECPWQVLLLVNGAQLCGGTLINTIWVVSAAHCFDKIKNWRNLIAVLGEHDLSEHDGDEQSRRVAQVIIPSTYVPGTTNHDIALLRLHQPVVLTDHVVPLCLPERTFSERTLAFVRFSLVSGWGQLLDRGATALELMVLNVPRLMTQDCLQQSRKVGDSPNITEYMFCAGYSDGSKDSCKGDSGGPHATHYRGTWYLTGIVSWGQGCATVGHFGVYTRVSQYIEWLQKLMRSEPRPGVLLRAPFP
T3 sequence (P08709 61-212 limits assumed): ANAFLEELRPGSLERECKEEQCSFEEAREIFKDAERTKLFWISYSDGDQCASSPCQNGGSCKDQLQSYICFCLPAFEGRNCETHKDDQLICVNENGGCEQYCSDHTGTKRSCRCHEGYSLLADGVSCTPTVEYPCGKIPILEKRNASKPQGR
The assay is described as follows: Inhibition of Factor VIIa hydrolysis of chromogenic substrate S2288 (Ki). It counts as biochemical. The following applies: S2288, pH 7.6. Here is the method:
as §1, §2, §3, §4, §5, §6, §7, §8, §9

In assay [1] the test system is activated partial thromboplastin time. The experiment in a line: Anticoagulant effect in vivo: prolongation of activated partial thromboplastin time of blood samples after dosing. Set-up: species or system conscious dogs or anesthetized rats. The following applies: 0.5 to 10 mg/kg, dogs or rats. How it is done: Arterial or venous blood was withdrawn by syringe and mixed with 1/10 volume 3.2% sodium citrate. Plasma was obtained after centrifugation and a standard clinical activated partial thromboplastin time (APTT reagent, Sigma Chemical Co., St. Louis, Mo.) determined at 37° C. in a fibrometer.

For the next assay, the system named is thrombin clotting times. The experiment in a line: Thrombin clotting time, concentration for 2-fold increase. It counts as biochemical. The following applies: 2-fold increase of thrombin clotting time.

The values that follow come from patent publication US5658885A, “Amidino and guanidino substituted boronic acid inhibitors of trypsin-like enzymes” (The DuPont Merck Pharmaceutical Company, priority 1994, dated 1997).

Where a name gives a salt, the structure may show the parent alone.

T2 sequence (P00742 235-488 limits assumed): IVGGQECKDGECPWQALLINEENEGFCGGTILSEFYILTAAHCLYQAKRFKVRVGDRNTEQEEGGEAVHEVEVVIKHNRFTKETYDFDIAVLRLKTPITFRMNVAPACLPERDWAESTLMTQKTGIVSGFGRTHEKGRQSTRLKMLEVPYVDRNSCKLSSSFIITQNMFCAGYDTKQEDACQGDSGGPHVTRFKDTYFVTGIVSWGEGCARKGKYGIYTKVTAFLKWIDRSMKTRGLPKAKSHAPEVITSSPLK
T2 sequence (P00742 41-179 limits assumed): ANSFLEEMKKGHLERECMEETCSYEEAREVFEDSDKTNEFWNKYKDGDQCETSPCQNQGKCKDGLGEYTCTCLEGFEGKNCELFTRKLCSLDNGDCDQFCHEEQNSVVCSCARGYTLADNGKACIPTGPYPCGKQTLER

As a reminder, the Ki is a measure of affinity in units of concentration, obtained from inhibition or displacement. A high value points to weaker binding. With `N=CNCCCC(NC(=O)C1CCCN1C(=O)CCc1ccccc1)B(O)O` (stereo not drawn) [Example 48], the Ki was less than 500 nM at human thrombin, less than 50 µM at human factor Xa and less than 500 nM on human factor VIIa.
For `CC1(C)C2CC3OB(C(Cc4cccc(C#N)c4)NC(=O)[C@@H]4CCCN4C(=O)[C@H](N)Cc4cccs4)OC3(C)C1C2` (stereo partly drawn) [Example 38, H--(D)2-Thienylalanine-Pro--boroPhe(m-CN)--C10 H16.HCl], the figures for the Ki on human thrombin, at human factor Xa and at human factor VIIa were less than 500 nM, less than 50 µM and less than 500 nM, respectively.
With “Ac--(D)Phe--Pro--boroOrn(CH=NH)]--OH.HCl [Example 4]”, the Ki at human thrombin is less than 500 nM; at human factor Xa it was less than 0.5 µM; on human factor VIIa it was less than 500 nM. Besides, the “anticoagulant response (at least doubling of activated partial thromboplastin time vs. pre-dose)” value in assay [1] (i.v. dosing) and in assay [1] (oral dosing) was “effective” throughout.
As for `CC(C)(C)OC(=O)N[C@H](Cc1ccccn1)C(=O)N1CCCC1C(=O)NC(Cc1cccc(C#N)c1)B1OC2CC3CC(C3(C)C)C2(C)O1` (stereo partly drawn) [Example 34, Boc--(D)2-Pyridylalanine-Pro--boroPhe(m-CN)--C10 H16], the Ki at human thrombin is less than 500 nM; on human factor Xa, less than 0.5 µM; on human factor VIIa, less than 500 nM.
As for `CC1(C)C2CC3OB(C(Cc4cccc(C#N)c4)NC(=O)C4CCCN4C(=O)C(Cc4cccs4)NS(C)(=O)=O)OC3(C)C1C2` (stereo not drawn) [Example 40, Ms--(D)2-Thienylalanine-Pro--boroPhe(m-CN)--C10 H16], the Ki was less than 500 nM at human thrombin, less than 0.5 µM on human factor Xa and less than 500 nM at human factor VIIa.
On to “Boc--(D)Phe--Pro--boroGly[(CH2)3 --ONH2 ]--OH.HCl [Example 102]”, for which the Ki on human thrombin is less than 500 nM; on human factor Xa it was less than 50 µM; on human factor VIIa, less than 500 nM.
Consider `COCCCC(NC(=O)[C@@H]1CCCN1C(=O)[C@@H](Cc1ccccc1)N(C)C)B1OC2CC3CC(C3(C)C)C2(C)O1` (stereo partly drawn) [Example 141, N,N-dimethyl-(D)--Phe--Pro--boroGly[(CH2)3 --OCH3]--C10 H16], for which the Ki on human thrombin was less than 500 nM; on human factor Xa it was less than 50 µM; at human factor VIIa, less than 50000 nM.
For `CC1(C)C2CC3OB(C(Cc4cccc(C#N)c4)NC(=O)[C@@H]4CCCN4C(=O)[C@H](N)Cc4ccccn4)OC3(C)C1C2` (stereo partly drawn) [Example 37, H--(D)2-Pyridylalanine-Pro--boroPhe(m-CN)--C10 H16.HCl] the same measures were less than 500 nM, less than 50 µM and less than 500 nM.
In turn, “Ms--(D)Phe--Pro--boroArg(CH3)--OH.HCl [Example 56]” came in with a Ki at human thrombin of less than 500 nM. In assay [1] (oral dosing), the “anticoagulant response (at least doubling of activated partial thromboplastin time vs. pre-dose)” value is reported as “effective”.
As for `CC(=O)N[C@H](Cc1ccccc1)C(=O)N1CCC[C@H]1C(=O)N[C@@H](Cc1cccc(C#N)c1)B(O)O` [Example 23, Ac--(D)Phe--Pro--boroPhe--(m-CN)--OH.HCl], the Ki at human thrombin is less than 500 nM; at human factor Xa, less than 50 µM; at human factor VIIa, less than 500 nM.
Molecule `CCCCS(=O)(=O)NC(Cc1ccccc1)C(=O)N1CCCC1C(=O)NC(CCCNC=N)B(O)O.Cl` (stereo not drawn) [Example 66, CH3 (CH2)3 SO2 --(D)Phe--Pro--boroOrn(CH=NH)--OH.HCl] had a Ki at human thrombin of less than 500 nM. Further, the “anticoagulant response (at least doubling of activated partial thromboplastin time vs. pre-dose)” value in assay [1] (oral dosing) is “effective”.
As for `CC(=O)NCCCCC(NC(=O)C1CCCN1C(=O)CCc1ccccc1)B1OC2CC3CC(C3(C)C)C2(C)O1` (stereo not drawn) [Example 136, Hydrocinnamoyl-ProboroGly[(CH2)4 --NH--Acetyl]C10 H16], the figures for the Ki on human thrombin, at human factor Xa and on human factor VIIa were less than 500 nM, less than 50 µM and less than 50000 nM, respectively.
On human thrombin, `CC(=O)NC(Cc1ccccc1)C(=O)N1CCCC1C(=O)NC(Cc1cccc(C(=N)N)c1)B1OC2CC3CC(C3(C)C)C2(C)O1.O=S(=O)(O)c1ccccc1` (stereo not drawn) [Example 12, Ac--(D)Phe--Pro--boroPhe--(m-C(NH)NH2)--C10 H16.BSA] showed a Ki of less than 500 nM. Besides, the “concentration that increased thrombin clotting times 2-fold” value in the assay on thrombin clotting times came out at 0.85 µM.
Take `CS(=O)(=O)N[C@H](Cc1ccc(F)cc1)C(=O)N1CCC[C@H]1C(=O)N[C@@H](CCCNC=N)B(O)O.Cl` [Example 60, Ms--(D)Phe(4-fluoro)-Pro--boroOrn(CH=NH)--OH.HCl]: the Ki at human thrombin was less than 500 nM. Moreover, the “anticoagulant response (at least doubling of activated partial thromboplastin time vs. pre-dose)” value in assay [1] (oral dosing) was “effective”.
With `CC(C)(C)OC(=O)NC(Cc1cccs1)C(=O)N1CCCC1C(=O)NC(Cc1cccc(C#N)c1)B1OC2CC3CC(C3(C)C)C2(C)O1` (stereo not drawn) [Example 36, Boc--(D)2-Thienylalanine-Pro--boroPhe(m-CN)--C10 H16], the results for the Ki at human thrombin, at human factor Xa and on human factor VIIa were less than 500 nM, less than 0.5 µM and less than 500 nM, respectively.
At human thrombin, `CS(=O)(=O)N[C@H](Cc1ccccc1)C(=O)N1CCC[C@H]1C(=O)N[C@@H](CCCNC=N)B(O)O.Cl` [Example 57, Ms--(D)Phe--Pro--boroOrn(CH=NH)--OH.HCl] showed a Ki of less than 500 nM. For the same molecule, the “anticoagulant response (at least doubling of activated partial thromboplastin time vs. pre-dose)” value in assay [1] (i.v. dosing) and in assay [1] (oral dosing) was “effective” each time.
For `COCCCC(NC(=O)C1CCCN1C(=O)C(Cc1ccccc1)NCC(=O)O)B1OC2CC3CC(C3(C)C)C2(C)O1` (stereo not drawn) [Example 140, HO2 CCH2 --(D)--Phe--Pro--boroGly[(CH2)3 --OCH3]--C10 H16], the results for the Ki on human thrombin and on human factor VIIa were less than 500 nM and less than 50000 nM, respectively.
For `CC1(C)C2CC3OB(C(Cc4cccc(C#N)c4)NC(=O)C4CCCN4C(=O)C(N)Cc4cccnc4)OC3(C)C1C2` (stereo not drawn) [Example 30, H--(D)3-Pyridylalanine-Pro--boroPhe(m-CN)--C10 H16.HCl], the Ki is less than 500 nM on human thrombin and less than 0.5 µM at human factor Xa.
For `CC(C)(C)OC(=O)N[C@H](Cc1cccnc1)C(=O)N1CCCC1C(=O)NC(Cc1cccc(C#N)c1)B1OC2CC3CC(C3(C)C)C2(C)O1` (stereo partly drawn) [Example 28, Boc--(D)3-Pyridylalanine-Pro--boroPhe--(m-CN)-C10 H16] the same measures were less than 500 nM and less than 0.5 µM.
For `CC(=O)N[C@H](Cc1ccccc1)C(=O)N1CCCC1C(=O)NC(CC1CCC(N)CC1)B1OC2CC3CC(C3(C)C)C2(C)O1` (stereo partly drawn) [Example 124] the same measures were less than 500 nM and less than 50 µM.
Regarding `CC1(C)C2CC3OB(C(Cc4cccc(C#N)c4)NC(=O)[C@@H]4CCCN4C(=O)[C@@H](Cc4ccccn4)NS(C)(=O)=O)OC3(C)C1C2` (stereo partly drawn) [Example 39, Ms--(D)2-Pyridylalanine-Pro--boroPhe(m-CN)--C10 H16], the results for the Ki on human thrombin, on human factor Xa and on human factor VIIa were less than 500 nM, less than 0.5 µM and less than 500 nM, respectively.
Molecule `CC(=O)NC(Cc1ccccc1)C(=O)N1CCCC1C(=O)NC(CCCNC=N)B1OC2CC3CC(C3(C)C)C2(C)O1.Cl` (stereo not drawn) [Example 3, Ac--(D)Phe--Pro--boroOrn(CH=NH)]--C10 H16.HCl] came in with a Ki on human thrombin of less than 500 nM. Moreover, the “concentration that increased thrombin clotting times 2-fold” value in the assay on thrombin clotting times amounted to 0.25 µM.
Take “H--(D)Phe--Pro--boroOrn(CH=NH)]--OH.0.65 HCl.0.35 BSA [Example 9]”: the Ki at human thrombin was less than 500 nM. In the assay with thrombin clotting times, the “concentration that increased thrombin clotting times 2-fold” value was found to be 0.10 µM.
In the case of `Cl.N=CNCCCC(NC(=O)C1CCCN1C(=O)C(Cc1ccccc1)NC(=O)OCc1ccccc1)B(O)O` (stereo not drawn) [Example 77, Z--(D)Phe--Pro--boroOrn(CH=NH)--OH.HCl], in assay [1] (i.v. dosing), the “anticoagulant response (at least doubling of activated partial thromboplastin time vs. pre-dose)” value is reported as “effective”.
With “Ms--(D)Phe--Pro--boroPhe(m-CN)--OH.HCl [Example 24]”, the values for the Ki at human thrombin and at human factor Xa were less than 500 nM and less than 0.5 µM, respectively.
As to `CC1(C)C2CC3OB(C(CCCNC(N)=O)NC(=O)C4CCCN4C(=O)C(Cc4ccccc4)NS(=O)(=O)Cc4ccccc4)OC3(C)C1C2` (stereo not drawn) [Example 110, PhCH2 SO2 --(D)Phe--Pro--boroOrn(CONH2)--C10 H16], the figures for the Ki on human thrombin and on human factor Xa were less than 500 nM and less than 50 µM, respectively.
